According to ChEMBL document CHEMBL1201862, “PubChem BioAssay data set” (2004):
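1) Cells in 96-well plates. 2) Compound, 48 h, 5 concentrations. 3) Linear interpolation between surrounding doses. 4) Unreached endpoint = highest concentration. Abbreviation: GI50, concentration required for 50% inhibition of growth.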 Active and inactive are the calls of the source. No stated cut-off is given here; in the data, active = GI50 up to about 1.1 µM and inactive = higher.

Assays:
Test in all cases: growth of human tumour cells (NCI), 48 h
SK-MEL-2 = test system: SK-MEL-2
LOX IMVI = test system: LOX IMVI
OVCAR-4 = test system: OVCAR-4
HCC 2998 = test system: HCC 2998
OVCAR-8 = test system: OVCAR-8
NCI-H460 = test system: NCI-H460
SNB-19 = test system: SNB-19
SK-MEL-28 = test system: SK-MEL-28
OVCAR-3 = test system: OVCAR-3
A549 = test system: A549
LXFL 529 = test system: LXFL 529
K562 = test system: K562
HT-29 = test system: HT-29
IGROV-1 = test system: IGROV-1
NCI-H226 = test system: NCI-H226
HCT-116 = test system: HCT-116
M14 = test system: M14
UACC-257 = test system: UACC-257
HCT-15 = test system: HCT-15
T47D = test system: T47D

| SMILES | GI50 (SK-MEL-2) | GI50 (LOX IMVI) | GI50 (OVCAR-4) | GI50 (HCC 2998) | GI50 (OVCAR-8) | GI50 (NCI-H460) | GI50 (SNB-19) | GI50 (SK-MEL-28) | GI50 (OVCAR-3) | GI50 (A549) | GI50 (LXFL 529) | GI50 (K562) | GI50 (HT-29) | GI50 (IGROV-1) | GI50 (NCI-H226) | GI50 (HCT-116) | GI50 (M14) | GI50 (UACC-257) | GI50 (HCT-15) [µM] | GI50 (T47D) |
| --- | --- | --- | --- | --- | --- | --- | --- | --- | --- | --- | --- | --- | --- | --- | --- | --- | --- | --- | --- | --- |
| Cc1c(C(=O)C/C(=N/NC(=O)CC#N)C(N)=O)[n+]([O-])c2ccccc2[n+]1[O-] | > 100 µM (inactive) | 34.3 µM (inactive) | 32.7 µM (inactive) | 39.5 µM (inactive) | 34.2 µM (inactive) | 38.4 µM (inactive) | > 100 µM (inactive) | > 100 µM (inactive) | 22.9 µM (inactive) | > 100 µM (inactive) | 74.1 µM (inactive) | 52.1 µM (inactive) | 78 µM (inactive) | 20.5 µM (inactive) | > 100 µM (inactive) | 28.1 µM (inactive) | 34.5 µM (inactive) | 35.9 µM (inactive) | 25.9 | – |
| Cc1cc(N(CCC#N)CCC#N)ccc1/C=C/C(=O)Nc1ccccc1Cl | > 100 µM (inactive) | > 100 µM (inactive) | > 100 µM (inactive) | > 100 µM (inactive) | > 100 µM (inactive) | > 100 µM (inactive) | > 100 µM (inactive) | > 100 µM (inactive) | > 100 µM (inactive) | > 100 µM (inactive) | > 100 µM (inactive) | > 100 µM (inactive) | > 100 µM (inactive) | > 100 µM (inactive) | > 100 µM (inactive) | > 100 µM (inactive) | > 100 µM (inactive) | > 100 µM (inactive) | > 100 | – |
| CN(C)CCCNc1ccc2ncn3c4ccc(O)cc4c(=O)c1c23 | 6.21 µM (inactive) | 0.607 µM (active) | 1.55 µM (inactive) | 4.43 µM (inactive) | 1.07 µM (active) | 0.105 µM (active) | 1.24 µM (inactive) | 4.71 µM (inactive) | 3.58 µM (inactive) | 0.0721 µM (active) | 1.87 µM (inactive) | 1.35 µM (inactive) | 1.3 µM (inactive) | 0.577 µM (active) | 0.483 µM (active) | 0.458 µM (active) | 1.65 µM (inactive) | 8.09 µM (inactive) | 1.91 | 12 µM (inactive) |
| COc1ccc(OC)c(CC(C)N)c1 (configuration not stated) | > 100 µM (inactive) | > 100 µM (inactive) | > 100 µM (inactive) | > 100 µM (inactive) | > 100 µM (inactive) | > 100 µM (inactive) | > 100 µM (inactive) | > 100 µM (inactive) | > 100 µM (inactive) | > 100 µM (inactive) | > 100 µM (inactive) | > 100 µM (inactive) | > 100 µM (inactive) | > 100 µM (inactive) | > 100 µM (inactive) | > 100 µM (inactive) | > 100 µM (inactive) | > 100 µM (inactive) | > 100 | – |
